Source: patent EP1855705B1, “ANTIBIOTIC 107891, ITS FACTORS, PHARMACEUTICALLY ACCEPTABLE SALTS AND COMPOSITIONS, AND USE THEREOF” (Sentinella Pharmaceuticals, Inc. ("Sentinella"), priority 2005, dated 2006)
In brackets after ≈: the same amount, converted by molar mass.

Legend:
Enterococcus faecium = assay: MIC, broth microdilution method (NCCLS M7-A5); format: cell-based; conditions: 568 Enterococcus faecium cl.isol.

For `C=C1NC(=O)C(Cc2c[nH]c3ccc(Cl)cc23)NC(=O)C(NC(=O)C(=CC)NC(=O)C(N)C(C)C)CSCC(C(=O)NC2C(=O)N3CCCC3C(=O)NCC(=O)NC(C(=O)NC(C(=O)NC3CSCC4NC(=O)C(CC(N)=O)NC(=O)C(CSCC5NC(=O)C(Cc6ccccc6)NC(=O)C(CS/C=C\NC5=O)NC4=O)NC(=O)CNC(=O)CNC(=O)CNC(=O)C4C(O)C(O)CN4C3=O)C(C)O)CSC2C)NC(=O)C(CC(C)C)NC1=O` (stereo not drawn) [Factor A1], the MIC (Staph. haemolyticus) was 0,25 µg/ml.

With `C=C1NC(=O)C(Cc2c[nH]c3ccc(Cl)cc23)NC(=O)C(NC(=O)C(=CC)NC(=O)C(N)C(C)C)CSCC(C(=O)NC2C(=O)N3CCCC3C(=O)NCC(=O)NC(C(=O)NC(C(=O)NC3CSCC4NC(=O)C(CC(N)=O)NC(=O)C(CSCC5NC(=O)C(Cc6ccccc6)NC(=O)C(CS/C=C\NC5=O)NC4=O)NC(=O)CNC(=O)CNC(=O)CNC(=O)C4CC(O)CN4C3=O)C(C)O)CSC2C)NC(=O)C(CC(C)C)NC1=O` (stereo not drawn) [Factor A2] the MIC (Enterococcus faecium) was 2 µg/mL (≈ 0.896 µM) and the MIC (Staph. haemolyticus) was 0,25 µg/ml.
